Source: publication PMC9354243, “The Role of Tryptophan in π Interactions in Proteins: An Experimental Approach” (Journal of the American Chemical Society, 2022)

How the values were obtained:
[1] = target: T1, RibU W97Y labeled with 5,7diFW (Lactococcus lactis subsp. cremoris, UniProt D8KIE9, W97Y); experiment: Fluorescence titration of RibU with RBF, 5,7diFW variant; format: binding
T1 construct: His10; made in house; host or cells: Lactococcus lactis Trp auxotroph NZ9000-trp with pMG36e-trpRS
Procedure: (§1) Fluorescence titration experiments of the different RibU constructs with RBF at 20 °C allowed estimation of the impact of W68 fluorination or 5-methylation on the binding affinity (Figure 3 and Table 5).
(§2) Figure 3 Titration of Trp analog labeled RibU W97Y proteins with RBF. The RBF fluorescence was measured at the indicated RBF concentrations in the absence (triangles) or presence (dots) of the W97Y RibU variant (see insets). The difference between these two signals were calculated to build the titration curve. This curve was used to compute the RBF Kd (see Experimental Section in the Supporting Information). […]
(§3) Binding assays – Fluorescence titrations of RibU with RBF.
(§4) The concentration of the riboflavin stock was established using a Jasco V-650 spectrophotometer with an ε435 of 12600 M-1.cm-1 The concentration of RibU-His was calculated using a Nanodrop (Thermo […]
(§5) Riboflavin was excited at 435 nm and emission was recorded between 450 nm and 700 nm using a FluoroLog 322 Spectrofluorometer (Jobin Yvon). […] Titration experiments were performed in a 1 mL quartz cuvette at 20 °C as described.13 In brief, purified and desalted RibU protein in gel filtration buffer was titrated with RBF and after each addition the emission spectrum was recorded twice, corrected for buffer emission and instrument response and integrated. […]

[2] = target: T2, RibU W97Y labeled with 5MeW (Lactococcus lactis subsp. cremoris, UniProt D8KIE9, W97Y); experiment: Fluorescence titration of RibU with RBF, 5MeW variant; format: binding
T2 construct: His10; made in house; host or cells: Lactococcus lactis Trp auxotroph NZ9000-trp with pMG36e-trpRS
Procedure: as §1, §2, §3, §4, §5

[3] = target: T3, RibU W97Y labeled with 5,6,7triFW (Lactococcus lactis subsp. cremoris, UniProt D8KIE9, W97Y); experiment: Fluorescence titration of RibU with RBF, 5,6,7triFW variant; format: binding
T3 construct: His10; made in house; host or cells: Lactococcus lactis Trp auxotroph NZ9000-trp with pMG36e-trpRS
Procedure: as §1, §2, §3, §4, §5

[4] = test system: RibU W97Y; experiment: Fluorescence titration of RibU with RBF, natural Trp (W); format: binding, Lactococcus lactis; settings: extrapolation to RibU labeled with tetrafluoroTrp
Procedure: as §1
(§6) Figure 3 Titration of Trp analog labeled RibU W97Y proteins with RBF. The RBF fluorescence was measured at the indicated RBF concentrations in the absence (triangles) or presence (dots) of the W97Y RibU variant (see insets). The difference between these two signals were calculated to build the titration curve. This curve was used to compute the RBF Kd (see Experimental Section in the Supporting Information). Panels from left to right present the results for RibU W97Y, labeled with 5MeW, 5FW, 5,7diFW, and 5,6,7triFW, respectively.
as §3, §4
(§7) Riboflavin was excited at 435 nm and emission was recorded between 450 nm and 700 nm using a FluoroLog 322 Spectrofluorometer (Jobin Yvon). The excitation and emission s lits were set at 1.1 nm and 3.5 nm, respectively. Titration experiments were performed in a 1 mL quartz cuvette at 20 °C as described.13 In brief, purified and desalted RibU protein in gel filtration buffer was titrated with RBF and after each addition the emission spectrum was recorded twice, corrected for buffer emission and instrument response and integrated. The integrated emission intensities were corrected for dilution and compared to the integrated emission of riboflavin collected under these conditions in the absence […]
(§8) The Kd of RBF was derived by first determining the difference in fluorescence signal between the blan k titration with only the gel filtration buffer and the titration using the protein RibU -His in buffer. The obtained curve was fitted using equation I and the program OriginLab16 with n = number of binding sites, X = total RibU concentration, and S = maximal fluorescence signal in A.U. […]

[5] = target: T4, RibU W97Y (Lactococcus lactis subsp. cremoris, UniProt D8KIE9, W97Y); experiment: as above; format: binding
T4 construct: His10; made in house; host or cells: Lactococcus lactis Trp auxotroph NZ9000-trp with pMG36e-trpRS
Procedure: as §1, §6, §3, §4, §7, §8

T3 sequence (D8KIE9 whole entry W97Y): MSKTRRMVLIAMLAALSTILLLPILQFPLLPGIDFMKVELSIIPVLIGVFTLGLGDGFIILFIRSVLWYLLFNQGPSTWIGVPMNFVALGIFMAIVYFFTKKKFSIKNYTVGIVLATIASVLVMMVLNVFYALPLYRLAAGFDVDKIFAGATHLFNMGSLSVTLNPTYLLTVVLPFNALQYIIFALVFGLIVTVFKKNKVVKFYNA
T4 sequence (D8KIE9 whole entry W97Y): as above
T1 sequence (D8KIE9 whole entry W97Y): as above
T2 sequence (D8KIE9 whole entry W97Y): as above

Cc1cc2nc3c(=O)[nH]c(=O)nc-3n(C[C@H](O)[C@H](O)[C@H](O)CO)c2cc1C [RBF, riboflavin]
Kd [1]: 8.2 ± 0.9 nM
Kd [2]: 1.2 ± 0.1 nM
Kd [3]: 24.9 ± 2.7 nM
Fold lowering of the affinity by progressive fluorination of W68 ([3]; 20 °C, up to three fluoro-atoms introduced): 15 fold
Lowering of ΔG for RBF binding [4]: ~8 kJ/mol
Kd [5]: 1.8 ± 0.8 nM
Electrostatic contribution of W68 as share of total RBF binding energy ([5]; RibU containing natural Trp): 15–20%
